Laboratory results published in US20210238192A1, “VASCULAR ADHESION PROTEIN-1 (VAP-1) MODULATORS AND THERAPEUTIC USES THEREOF” (Blade Therapeutics, Inc., priority 2018, published 2021).
Structures can show the parent of a compound that is named as a salt. Where two headings read alike, the source gives them in different places.

Experiments:
Format in all cases: biochemical
[1] = target: T1, Human VAP-1 (Homo sapiens, UniProt Q16853); assay: VAP-1 inhibition assay (Amplex Red continuous fluorescence assay)
T1 sequence (Q16853 1-763): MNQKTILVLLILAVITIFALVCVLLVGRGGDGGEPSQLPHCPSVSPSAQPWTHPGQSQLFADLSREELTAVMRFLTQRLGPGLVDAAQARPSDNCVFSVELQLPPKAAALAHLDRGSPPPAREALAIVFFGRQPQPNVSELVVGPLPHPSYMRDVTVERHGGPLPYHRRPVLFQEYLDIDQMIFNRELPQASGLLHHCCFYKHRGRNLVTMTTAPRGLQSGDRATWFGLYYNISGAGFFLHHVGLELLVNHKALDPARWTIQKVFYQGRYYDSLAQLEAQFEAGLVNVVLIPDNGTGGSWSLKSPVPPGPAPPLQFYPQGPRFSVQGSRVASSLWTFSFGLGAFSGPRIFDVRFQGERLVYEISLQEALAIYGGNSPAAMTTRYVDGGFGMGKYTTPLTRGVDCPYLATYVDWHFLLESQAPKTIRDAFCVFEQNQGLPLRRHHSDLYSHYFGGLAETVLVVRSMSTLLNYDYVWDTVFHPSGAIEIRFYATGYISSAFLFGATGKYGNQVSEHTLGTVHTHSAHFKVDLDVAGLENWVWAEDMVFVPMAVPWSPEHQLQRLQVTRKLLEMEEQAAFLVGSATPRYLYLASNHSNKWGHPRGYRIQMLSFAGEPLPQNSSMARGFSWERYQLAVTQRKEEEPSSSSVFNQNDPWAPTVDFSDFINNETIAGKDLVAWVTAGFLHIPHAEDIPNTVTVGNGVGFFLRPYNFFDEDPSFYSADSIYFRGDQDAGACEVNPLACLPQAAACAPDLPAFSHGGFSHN
Description: (§1) VAP-1, DAO, MAO-A, MAO-B, and HRP activity and inhibition thereof was assessed by means of a continuous fluorescence assay. The Amplex Red Hydrogen Peroxide/Peroxidase Assay (ThermoFisher) was optimized for detecting amine oxidase (AO) activity. In an enzyme-coupled reaction, the H2O2 generated by AO reacts 1:1 with Amplex Red reagent to produce fluorescent product resorufin.
(§2) Assays were typically setup in black 384-well plates using automated liquid handling as follows. VAP-1/MAO assay buffer contains […] sodium phosphate, pH 7.4; DAO assay buffer contains 50 mM HEPES, pH 7.5; HRP assay buffer contains 100 mM CHES, 1 mM MgCl2, 50 mM NaCl, 0.05% BSA, pH 9.0. Inhibitors were serially diluted in DMSO and used to setup 2× mixtures with AO in the aforementioned buffer. After 30 min pre-incubation at 37° C. (VAP-1, HRP) or room temp (DAO, MAO), the reaction was initiated by adding a 2× mix of Amplex Red, HRP (coupling enzyme), and substrate (benzylamine, histamine, tyramine, benzylamine, H2O2, for VAP-1, DAO, MAO-A, MAO-B, and HR, respectively) in the same buffer. Reaction progress curve data were typically collected for 5 min using excitation/emission wavelengths of 510 nm/565 nm on FLIPR-Tetra plate readers (Molecular Devices Inc). Reaction rates were calculated from progress curve slopes typically over 60-150 sec. Dose response curves (rate vs. log inhibitor concentration) were typically fit to a 4-parameter logistic function to extract IC50 values.

[2] = target: T2, Human MAO-A (Homo sapiens, UniProt P21397); assay: MAO-A inhibition (Amplex Red continuous fluorescence assay)
T2 sequence (P21397 1-527): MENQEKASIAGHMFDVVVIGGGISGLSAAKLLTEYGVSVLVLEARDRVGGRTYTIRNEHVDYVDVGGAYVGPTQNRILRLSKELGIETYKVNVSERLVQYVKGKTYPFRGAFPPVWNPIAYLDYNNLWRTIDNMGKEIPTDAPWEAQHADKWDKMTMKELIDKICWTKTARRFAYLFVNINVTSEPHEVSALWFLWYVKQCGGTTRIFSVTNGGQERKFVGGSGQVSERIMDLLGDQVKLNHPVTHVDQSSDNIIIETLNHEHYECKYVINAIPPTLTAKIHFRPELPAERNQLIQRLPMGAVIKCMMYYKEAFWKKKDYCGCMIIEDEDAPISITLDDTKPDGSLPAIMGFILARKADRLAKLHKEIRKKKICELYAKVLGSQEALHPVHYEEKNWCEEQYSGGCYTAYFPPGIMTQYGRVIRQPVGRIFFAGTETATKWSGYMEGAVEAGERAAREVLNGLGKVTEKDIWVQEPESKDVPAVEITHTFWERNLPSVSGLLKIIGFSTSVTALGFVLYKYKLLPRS
Description: as §1, §2

[3] = target: T3, Human DAO (Homo sapiens, UniProt P19801); assay: DAO inhibition (Amplex Red continuous fluorescence assay)
T3 sequence (P19801 20-751): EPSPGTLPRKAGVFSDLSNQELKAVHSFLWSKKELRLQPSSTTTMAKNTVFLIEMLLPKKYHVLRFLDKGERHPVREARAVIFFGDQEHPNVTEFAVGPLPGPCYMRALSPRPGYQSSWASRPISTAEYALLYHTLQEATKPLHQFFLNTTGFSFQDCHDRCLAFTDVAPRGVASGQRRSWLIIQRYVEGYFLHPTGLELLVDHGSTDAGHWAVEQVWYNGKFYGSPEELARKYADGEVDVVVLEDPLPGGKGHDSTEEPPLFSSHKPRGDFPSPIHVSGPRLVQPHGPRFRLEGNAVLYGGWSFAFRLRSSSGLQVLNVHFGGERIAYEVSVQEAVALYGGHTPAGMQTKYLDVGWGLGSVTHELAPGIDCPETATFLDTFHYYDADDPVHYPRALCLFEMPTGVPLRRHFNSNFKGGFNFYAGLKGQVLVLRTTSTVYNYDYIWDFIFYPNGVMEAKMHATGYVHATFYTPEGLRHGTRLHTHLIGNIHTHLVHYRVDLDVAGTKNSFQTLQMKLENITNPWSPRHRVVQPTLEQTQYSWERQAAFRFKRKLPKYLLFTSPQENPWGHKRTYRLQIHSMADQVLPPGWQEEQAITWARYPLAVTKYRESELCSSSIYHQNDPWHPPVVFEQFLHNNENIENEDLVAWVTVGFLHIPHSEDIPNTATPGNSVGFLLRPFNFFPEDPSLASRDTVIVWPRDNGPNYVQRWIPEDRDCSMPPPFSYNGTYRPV
Description: as §1, §2

[4] = target: T4, Human MAO-B (Homo sapiens, UniProt P27338); assay: MAO-B inhibition (Amplex Red continuous fluorescence assay)
T4 sequence (P27338 1-520): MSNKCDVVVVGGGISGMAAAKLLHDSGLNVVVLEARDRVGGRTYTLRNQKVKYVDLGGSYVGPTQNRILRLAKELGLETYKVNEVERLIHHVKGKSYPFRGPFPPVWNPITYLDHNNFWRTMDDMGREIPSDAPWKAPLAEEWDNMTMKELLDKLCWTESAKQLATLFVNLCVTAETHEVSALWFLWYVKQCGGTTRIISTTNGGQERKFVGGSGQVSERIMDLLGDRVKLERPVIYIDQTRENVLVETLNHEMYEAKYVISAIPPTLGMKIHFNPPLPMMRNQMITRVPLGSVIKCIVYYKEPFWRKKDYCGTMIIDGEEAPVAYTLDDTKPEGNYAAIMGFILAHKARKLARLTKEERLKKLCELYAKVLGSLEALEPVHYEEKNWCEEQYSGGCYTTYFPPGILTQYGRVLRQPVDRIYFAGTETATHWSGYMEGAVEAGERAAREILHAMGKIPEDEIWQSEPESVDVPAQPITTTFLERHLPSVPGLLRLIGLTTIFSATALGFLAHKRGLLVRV
Description: as §1, §2

[5] = 30 min pre-incubation at 37° C., substrate benzylamine, read-out: Human VAP-1 IC50
[6] = 30 min pre-incubation at room temp, substrate tyramine, read-out: Human MAO-A IC50
[7] = 30 min pre-incubation at room temp, substrate histamine, read-out: Human DAO IC50
[8] = 30 min pre-incubation at room temp, substrate benzylamine, read-out: Human MAO-B IC50

| Compound | IC50 [1, 5] | IC50 [2, 6] | IC50 [3, 7] | IC50 [4, 8] | IC50 [1] | IC50 [2] | IC50 [3] | IC50 [4] |
| --- | --- | --- | --- | --- | --- | --- | --- | --- |
| CC(C)(C)NC(=O)c1ccc(NC/C(=C/F)CN)cc1 [Compound 45, (E)-4-((2-(aminomethyl)-3-fluoroalkyl)amino)-n-(tert-butyl)benzamide hydrochloride] | < 3 µM | > 10 µM | > 10 µM | < 3 µM |  |  |  |  |
| CC(C)(C)NC(=O)c1ccc(NC/C(=C\F)CN)cc1 [Compound 46, (Z)-4-((2-(aminomethyl)-3-fluoroalkyl)amino)-N-(tert-butyl)benzamide hydrochloride] | < 3 µM | > 10 µM | 3 to 10 µM | < 3 µM |  |  |  |  |
| NC/C(=C\F)CNC(=O)Oc1ccccc1 [Compound 47, phenyl (E)-(2-(aminomethyl)-3-fluoroalkyl)carbamate hydrochloride] |  |  |  |  | < 3 µM | < 3 µM | > 10 µM | > 10 µM |
| Cn1nccc1-c1ccc(OC/C(=C/F)CN)cc1 [Compound 48, (E)-3-fluoro-2-((4-(1-methyl-1H-pyrazol-5-yl)phenoxy)methyl)prop-2-en-1-amine hydrochloride] | < 3 µM | > 10 µM | < 3 µM | < 3 µM |  |  |  |  |
| Cn1nccc1-c1ccc(OC/C(=C\F)CN)cc1 [Compound 49, (Z)-3-fluoro-2-((4-(1-methyl-1H-pyrazol-5-yl)phenoxy)methyl)prop-2-en-1-amine hydrochloride] | < 3 µM | < 3 µM | < 3 µM | < 3 µM |  |  |  |  |
| Cn1ccc(-c2ccc(OC/C(=C/F)CN)cc2)n1 [Compound 50, (E)-3-fluoro-2-((4-(1-methyl-1H-pyrazol-3-yl)phenoxy)methyl)prop-2-en-1-amine hydrochloride] | < 3 µM | 3 to 10 µM | < 3 µM | < 3 µM |  |  |  |  |
| NC/C(=C\F)COc1ccc(-c2nnn[nH]2)cc1 [Compound 51, (E)-2-((4-(1H-tetrazol-5-yl)phenoxy)methyl)-3-fluoroprop-2-en-1-amine hydrochloride] | < 3 µM | > 10 µM | 3 to 10 µM | > 10 µM |  |  |  |  |
| NC/C(=C/F)COc1ccc(-c2nnn[nH]2)cc1 [Compound 52, (Z)-2-((4-(1H-tetrazol-5-yl)phenoxy)methyl)-3-fluoroprop-2-en-1-amine hydrochloride] | < 3 µM | > 10 µM | < 3 µM | > 10 µM |  |  |  |  |
